In PMC4124033 (Journal of molecular neuroscience : MN, 2010):

Experiments:
[1] = molecular target: T1, fatty acid amide hydrolase (FAAH) (Rattus norvegicus, UniProt P97612); format: biochemical
T1 sequence (P97612 1-579): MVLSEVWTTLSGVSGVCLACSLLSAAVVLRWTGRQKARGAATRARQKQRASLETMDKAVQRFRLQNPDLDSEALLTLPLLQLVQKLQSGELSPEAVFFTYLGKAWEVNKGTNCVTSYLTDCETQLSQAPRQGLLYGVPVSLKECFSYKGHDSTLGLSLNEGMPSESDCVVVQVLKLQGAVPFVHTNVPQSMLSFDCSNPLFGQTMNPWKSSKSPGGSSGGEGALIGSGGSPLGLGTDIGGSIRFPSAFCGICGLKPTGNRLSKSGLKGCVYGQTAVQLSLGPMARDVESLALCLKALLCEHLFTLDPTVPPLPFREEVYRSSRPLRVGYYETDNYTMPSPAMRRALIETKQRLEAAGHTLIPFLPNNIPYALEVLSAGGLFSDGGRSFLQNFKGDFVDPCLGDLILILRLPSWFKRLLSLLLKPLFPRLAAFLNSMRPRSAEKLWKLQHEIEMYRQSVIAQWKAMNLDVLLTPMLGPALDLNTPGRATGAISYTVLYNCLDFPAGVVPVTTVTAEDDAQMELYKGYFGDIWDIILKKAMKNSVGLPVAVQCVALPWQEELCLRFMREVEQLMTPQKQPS

[2] = molecular target: T2, monoacylglycerol lipase (MAGL) (Homo sapiens, UniProt Q99685); format: biochemical
T2 sequence (Q99685 1-303): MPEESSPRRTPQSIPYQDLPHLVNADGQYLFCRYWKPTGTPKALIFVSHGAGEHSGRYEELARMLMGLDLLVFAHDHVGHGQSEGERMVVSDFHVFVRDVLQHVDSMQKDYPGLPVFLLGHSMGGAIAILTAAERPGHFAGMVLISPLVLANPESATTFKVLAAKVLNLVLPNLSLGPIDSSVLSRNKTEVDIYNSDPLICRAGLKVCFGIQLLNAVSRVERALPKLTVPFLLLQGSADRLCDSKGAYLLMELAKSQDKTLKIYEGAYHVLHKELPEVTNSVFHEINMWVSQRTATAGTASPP

- IC50 [1]: 0.042 ± 0.006 µM
- IC50 [2]: 15.1 µM
Substance: AM5206
